We go through 18 molecules from patent EP1325958A1, “Genetic sequence coding for creatinine deiminase, and its use” (CampusGen GmbH, priority 2002, dated 2003).

SMILES strings stand for the structures.

The test system of one experiment is Creatinin-Deiminase (EC 3.5.4.21) aus Tissierella creatinini, heterolog in E. coli exprimiert, gereinigt, SEQ ID NO:2. Kind of experiment: Substrate saturation of purified recombinant creatinine deiminase (coupled optical test, Lineweaver-Burk plot). Format: biochemical. Particulars: purified recombinant enzyme, 0,06 µg per test, coupled optical test, 37°C, TEA-Puffer pH 8,6, read-out: Km-Wert für Creatinin. From the text: Abb. 1: Biosynthese von Creatin und Creatinin im menschlichen Körper. Die Synthese erfolgt in mehreren Schritten in verschiedenen Körperorganen. Abb. 2: Enzymatische Bestimmung von Creatinin mit Creatininase, Creatin-Kinase, Pyruvat-Kinase und Laktatdehydrogenase. Creatinin wird katalysiert durch Creatininase und Creatin-Kinase gekoppelt mit Pyruvatbildung. Das Pyruvat wird in der Indikatorreaktion in Gegenwart von Laktatdehydrogenase zu Laktat umgesetzt und dabei eine Extinktionsabnahme bei 340 nm von NADH gemessen. Abb.3: Enzymatische Bestimmung von Creatinin mit Creatininase, Creatinase, Sarcosinoxidase und Peroxidase. Creatinin wird katalysiert durch Creatininase, Creatinase und Sarcosinoxidase zu Glycin, Formaldehyd und H2O2 abgebaut. Das H2O2 wird in der Indikatorreaktion mittels Peroxidase anhand der Extinktionszunahme bei 510 oder 546 nm bestimmt. Abb.4: Enzymatische Bestimmung von Creatinin mit Creatinin-Deiminase und Glutamatdehydrogenase. Creatinin wird katalysiert durch Creatinin-Deiminase zu N-Methylhydantoin und Ammoniak abgebaut. Der Ammoniak wird mit α-Ketoglutarat und NADH mittels Glutamat-Dehydrogenase zu Glutamat umgesetzt und photometrisch die Extinktionsabnahme durch Verbrauch an NADH bei 340 bzw. 365 nm gemessen. Abb. 5: Schematische Darstellung des pBluescriptSK^+-Vektors. Gezeigt sind einige Restriktionsschnittstellen. […]
Take `CN1CC(=O)N=C1N` [Creatinin]: the Km amounted to 1100 µM.

The experiment is the same for the next values; noted with them: substrate Creatinin, this enzyme preparation, Proteinkonzentration: 6 µg/ml --> 1467 U/mg.
With `CN1CC(=O)N=C1N` [Creatinin], the Vmax was 8,8 U/ml.

For a further experiment the test system is unchanged. The experiment in a line: Interference studies: substances added to the standard creatinine deiminase test, enzyme activity determined. Format: biochemical. The following applies: statement in the text referring to Tabelle 1. As to the method:
Dieses erfindungsgemäße Verfahren ermöglicht die Bestimmung von Creatinin bei Einsatz von nur zwei Enzymen, die in einer Mess- bzw. Indikatorreaktion eingesetzt werden, wobei keine komplizierten Hilfsreaktionen erforderlich sind. Wie in Tabelle 1 gezeigt ist, weist die erfindungsgemäße Creatinin-Deiminase eine außerordentlich hohe Spezifität für sein Substrat Creatinin auf. Das Enzym zeigt insbesondere mit Cytosin bis zu einer Konzentration von […] keine Interferenz in der Reaktion. Somit ermöglicht die erfindungsgemäße Creatinin-Deiminase eine Bestimmung von Creatinin auch in Gegenwart anderer Substrate, insbesondere Cytosin ohne das Auftreten einer Interferenz, die das Messergebnis verfälschen würde. Tabelle 1:
Die Aktivität des gereinigten rekombinanten Enzyms wurde durch eine modifizierte enzymatische Methode nach Bergmeyer 1985 (BERGMEYER, H.U. (1985). Methods of enzymatic analysis 8: 488-507) bestimmt. Sie beruht auf der Messung des während der Creatinindeiminierung freigesetzten Ammoniaks in einem gekoppelten optischen Test durch Verbrauch von NADH bei 340 nm bzw. 365 nm. Der Reaktionsansatz enthielt folgende Konzentrationen in einem Endvolumen von 0,6 ml: TEA-Puffer 0,11 mol/l, pH 8,6; Creatinin 1,5 mmol/l; ADP 1,11 mmol/l; DTE 1 mmol/l; NADH 0,11 mmol/l; 2-Oxoglutarat 11 mmol/l; Glutamat-Dehydrogenase 8 U/ml. Nach Inkubation des Reaktionsansatzes (5 min bei 37°C) in einer Küvette im Photometer wurde die Reaktion mit 0,01 ml des gereinigten rekombinanten Enzyms gestartet und die Extinktionsabnahme bei 340 nm beobachtet. Eine Enzymeinheit katalysiert den Abbau von 1 µmol Creatinin/min bei 37°C.
Es wurden Interferenzstudien mit der gereinigten heterolog exprimierten Creatinin-Deiminase mit verschiedenen in Seren relevanten Substanzen durchgeführt. Diese wurden zum Standardtestansatz gegeben und jeweils die Aktivität der Creatinin-Deiminase bestimmt. In Tabelle 1 sind die getesteten relevanten Substanzen aufgelistet, die in den angegebenen Konzentrationen keine Interferenzen mit dem Enzymtest zeigten. Die rekombinante Creatinin-Deiminase zeigte eine außerordentliche Substratspezifität bei Zusatz der in Tabelle 1 angegebenen Substanzen.
Regarding `Nc1cc[nH]c(=O)n1` [Cytosin], the “keine Interferenz in der Reaktion bis zu einer Konzentration von” value is 2000 mg/mL.

Still in this experiment, the particulars now being: substance added to the standard test (Creatinin 1,5 mmol/l, 37°C, pH 8,6); no interference with the enzyme test at the stated concentration.
With `Nc1nc(=O)[nH]cc1F` [5-Fluorocytosin], the “Keine Interferenzen bis zu einer Konzentration von” value was found to be 1000 mg/L. On to `CC(C)=O` [Aceton], for which the “Keine Interferenzen bis zu einer Konzentration von” value is 2000 mg/L.

Consider `O=C1O[C@H]([C@@H](O)CO)C(O)=C1O` [Ascorbinsäure], for which the “Keine Interferenzen bis zu einer Konzentration von” value turned out to be 200 mg/L.

As for `C[C@H](CS)C(=O)N1CCC[C@H]1C(=O)O` [Captopril], the “Keine Interferenzen bis zu einer Konzentration von” value worked out at 83 mg/L. `CN(CC(=O)O)C(=N)N` [Creatin]: the “Keine Interferenzen bis zu einer Konzentration von” value worked out at 2000 mg/L.

With `Nc1cc[nH]c(=O)n1` [Cytosin], the “Keine Interferenzen bis zu einer Konzentration von” value was 2000 mg/L. As for `CNC[C@H](O)c1ccc(O)c(O)c1` [Epinephrin], the “Keine Interferenzen bis zu einer Konzentration von” value is on record as 0,05 mg/l. Consider `NS(=O)(=O)c1cc(C(=O)O)c(NCc2ccco2)cc1Cl` [Fuoresemid], for which the “Keine Interferenzen bis zu einer Konzentration von” value turned out to be 4433 mg/L.

Regarding `OC[C@H]1OC(O)[C@H](O)[C@@H](O)[C@@H]1O` (some centres unmarked) [Glukose], the “Keine Interferenzen bis zu einer Konzentration von” value was 1100 mg/L. In the case of `N[C@@H](Cc1c[nH]cn1)C(=O)O` [Histidin], the “Keine Interferenzen bis zu einer Konzentration von” value turned out to be 2250 mg/L. Same read-out and setting: the value for `NCC(O)c1cccc(O)c1` (centres unmarked) [Norfenefrin] was 1,5 mg/l.

`O=C(O)C(=O)O` [Oxalsäure]: the “Keine Interferenzen bis zu einer Konzentration von” value was found to be 400 mg/L.

Consider `O=C(O)c1cc(N=Nc2ccc(S(=O)(=O)Nc3ccccn3)cc2)ccc1O` [Salazosulfapyridin], for which the “Keine Interferenzen bis zu einer Konzentration von” value was determined as 550 mg/L.

On to `Cc1cc(NS(=O)(=O)c2ccc(N)cc2)no1` [Sulfatmethoxazol], for which the “Keine Interferenzen bis zu einer Konzentration von” value was found to be 500 mg/L. With `COc1cc(Cc2cnc(N)nc2N)cc(OC)c1OC` [Trimethoprim], the “Keine Interferenzen bis zu einer Konzentration von” value was found to be 46 mg/L.

For `CN[C@H](CC(C)C)C(=O)N[C@H]1C(=O)N[C@@H](CC(N)=O)C(=O)N[C@H]2C(=O)N[C@H]3C(=O)N[C@H](C(=O)N[C@H](C(=O)O)c4cc(O)cc(O)c4-c4cc3ccc4O)[C@H](O)c3ccc(c(Cl)c3)Oc3cc2cc(c3O[C@@H]2O[C@H](CO)[C@@H](O)[C@H](O)[C@H]2O[C@H]2C[C@](C)(N)[C@H](O)[C@H](C)O2)Oc2ccc(cc2Cl)[C@H]1O` [Vancomycin], the “Keine Interferenzen bis zu einer Konzentration von” value was found to be 288 mg/L. Still for that read-out and setting: the value for `CC(N)(Cc1ccc(O)c(O)c1)C(=O)O` (stereo not drawn) [α-Methyl-Dopa] was 107 mg/L.
